{"source": "patent EP1369114A1", "about": "“Use of tryptophan metabolites as pharmaceutical agents” (Terness, Peter, Priv. Doz. Dr., priority 2002, dated 2003)", "key": {"T cells": {"test_system": "T cells", "test": "Detection of cell death: 7-AAD staining of anti-CD3 stimulated lymphocytes, FACScan", "assay_type": "cell-based, human", "details": "anti-CD3, 3 days; 1501 µM kynurenine, 349µM 3-hydroxykynurenine, 510µM 3-hydroxyanthranilic acid, mixture 64 µM of each compound", "protocol": "Lymphocytes were stimulated in culture with anti-CD3 monoclonal antibody (s. above) in the presence or absence (control) of kynurenine (1501µM), 3-hydroxyanthranilic acid (510µM), 3-hydroxykynurenine (348µM), or metabolite mixture (64µM kynurenine + 64µM 3-hydroxykynurenine + 64µM anthranilic acid + 64µM 3-hydroxyanthranilic acid + […] quinolinic acid). After 3 days the cells were washed and resuspended in PBS (10^6/ml). Thereafter, the cells (100µ1 suspension) were labeled with anti-CD3-FITC antibody (3 µl), stained with 7-AAD (5µl) for 15 min, and the percentage of 7-AAD-positive (dead) T cells was determined in a FACScan. In an other experiment T cells, B cells, NK-cells, or DCs were separated from PBMCs by magnetic beads or generated as described, and cultured (5x10^5 cells/ml) with a mixture of kynurenine metabolites (kynurenine + 3-hydroxykynurenine + anthranilic acid + 3-hydroxyanthranilic acid + quinolinic acid)(8, 16, or 32µM respectively for each compound). In one setting T cells were activated with anti-CD3 antibody. Cell death was measured daily for 5 days by 7-AAD staining and expressed in percentage of dead cells."}, "CD3-stimulated T cells": {"test_system": "CD3-stimulated T cells", "test": "CD3 stimulation of T cells: metabolite titration curves, 3[H]-thymidin incorporation", "assay_type": "cell-based, human", "details": "anti-CD3 antibody, 3 days", "from_the_text": "• (a) Allogeneic T-cell response. DCs were infected with recombinant IDO-adeno-GFP (DC-IDO-GFP), IDO-adeno (DC-IDO) or with control adenoviruses (DC-adeno) at a MOI (multiplicity of infection) up to 500 for 2 days. Lymphocytes (PBMCs) were separated from peripheral blood of healthy donors by density gradient centrifugation and typed for HLA antigens. Only HLA-DR-different responder lymphocytes were used for DC-induced stimulation. Native DCs only, lymphocytes only, native DCs + allogeneic lymphocytes, DC-IDO-GFP + allogeneic lymphoytes, DC-IDO + allogeneic lymphoytes, DC-adeno + allogeneic lymphocytes (each time 10^5 DC + 10^5 lymphocytes in 0.2ml medium) were cultured in RPMI 1640 medium (Gibco BRL Life Technologies GmbH, Eggenstein, Germany) with 10% fetal calf serum (FCS) (final tryptophan concentration 5.25 mg/l = 25.69 uM) and Penicillin G/Streptomycin. […] In order to verify whether IDO expression or adenovirus infection harm the DCs, 10^5 cells were infected with IDO-adeno-GFP, IDO-adenovirus, or adenovirus only at a stepwise decreasing MOI (500, 250, 125, ........ 3.9) and cell viability was measured in FACS following double staining with 7-AAD and anti-CD83 antibody-PE. The percentage of dead cells never exceeded 30% for any MOI following IDO-adeno-GFP- or IDO-adeno-infection and 40% following adenovirus(control)-infection. Moreover, these values were not higher than those of native DCs cultured for the same period of time. The experiment was repeated using ethidium bromide or trypan blue staining with virtually the same result. […] Peripheral blood lymphocytes were cultured (10^5 cells/well) in RPMI 1640 (10% FCS) with anti CD3 monoclonal antibody (Ortho Diagnostic Systems Inc., Raritan, NJ) (final dilution 1:200). […] Kynurenine, 3-hydroxykynurenine, anthranilic acid, 3-hydroxyanthranilic acid, and quinolinic acid (Sigma-Aldrich Chemie GmbH, Taufkirchen, Germany)(for all substances purity>98%) were dissolved in RPMI 1640 and added to cell cultures at various concentrations. In an other experiment, to determine whether the metabolites have an additive effect, equal concentrations of the compounds were mixed and added to the cultures. […] Positive controls consisted of CD3-stimulated cells without metabolites and negative controls of unstimulated cells. • (d) Restimulation of suppressed T cells. Lymphocytes (10^5 cells/well) were cultured in RPMI 1640 (10% FCS) with anti-CD3 monoclonal antibody (final dilution 1:200) and kynurenine (dilution series). […] Controls consisted of cells prestimulated with anti-CD3 but not pretreated with kynurenine. In an other restimulation experiment lymphocytes were stimulated with allogeneic DCs as described, in the presence (47-1500µM) or absence of kynurenine. Control cultures contained DCs or lymphocytes only. After 5 days the cells were extensively washed, and restimulated with an identical number of DCs derived from the same donor or from third party donors. […] In order to define the concentration of tryptophan which reduces T- lymphocyte proliferation in our test system, 10^5 lymphocytes were incubated in tryptophan-free RPMI 1640 medium (Gibco BRL Life Technologies) with or without 10% FCS, stimulated with anti-CD3 monoclonal antibody, and various amounts (0-38µM) of tryptophan were added. Unimpaired proliferation was observed down to 0.30µM (medium with FCS) and 1 .20µM (without FCS). Complete inhibition was not obtained at any concentration (positive control 100% proliferation; maximal suppression in medium with FCS: approx. 66% and without FCS: approx. 33%). All cell cultures were done in triplicate.\nAll tests were carried out in triplicate and results are given as mean +standard deviation. […] Thereafter, the concentration of substance giving 50% proliferation was calculated by regression."}}}
{"smiles": "Nc1ccccc1C(=O)CC(N)C(=O)O", "note": "(stereo not drawn) [kynurenine]", "values": [{"measurement": "dead (7-AAD-positive) T cells (in words)", "setting": "T cells", "result": "virtually all cells died"}, {"measurement": "IC50", "setting": "CD3-stimulated T cells; Homo sapiens, T-cell, 72 h, single substance, read-out: I50 of proliferation of CD3-stimulated T cells", "result": 553, "unit": "µM"}, {"measurement": "suppression of T cell response (in words)", "setting": "CD3-stimulated T cells", "result": "suppressed proliferation"}]}
